From US7053175B1, “Synthetic peptides useful in biological assays for detecting infections caused by group O HIV-1 viruses” (Bio-Rad Pasteur, priority 1997, dated 2006)
No end group written: not given here.

System: serum samples from patients infected with group O HIV-1 retroviruses
Test: Immunoenzymatic test: Test No. 2 (immunoreactivity with diluted sera)
Format: binding, human
Settings: for Number of samples: sera of Table V; for Number of samples / ABSORBANCE (OD): solid phase peptide 2 μg/ml; for ABSORBANCE (OD): cyclized; for immunoreactivity compared with the reference peptides (in words): summary of Tables V and VI
Source text: The serum samples from patients infected with group O HIV-1 retroviruses were obtained by the Yaounde Pasteur Centre in Cameroon and were serotyped group O according to the serological algorithm described in AIDS (1977), 11, pp. 445-453. A genotyped sample (Maryland) is obtained from the United States. These samples were previously diluted in negative human serum at the dilutions given in Table V, in order to have a sufficient volume for the different immunoreactivity tests.
The synthetic peptides used were dissolved in water at a concentration of 1 mg/ml (stock solution). For the solid phase sensitization step (“coating”), the procedure was carried out as described for Example 2.
The serum samples were diluted 1/5 with a skimmed milk solution (citrate buffer supplemented with 0.01% of phenol red, 0.25% of chloroform and 0.25% of Kathon®), deposited in the wells of plates and incubated for 30 min at 40° C.
After washing with a Tris-NaCl buffer solution pH 7.4 containing 0.1% of Tween® 20 and 0.001% of sodium merthiolate, 100 μl of a solution of conjugate consisting of horseradish peroxidase-labelled anti-human IgG and IgM goat antibodies, containing as preservative 0.01% of sodium merthiolate, in solution in a citrate buffer solution supplemented with 30% glycerol and 25% normal foetal calf serum, were added to each well of the plates and then they were incubated for 30 min at 40° C.
After washing with a Tris-NaCl buffer solution pH 7.4 containing 0.1% of Tween® 20 and 0.001% of sodium merthiolate, the colour was developed as described in Example 2.
The relative absorbance (OD) (A490-A620) read in each well is proportional to the immunoreactivity of each peptide. It indicates the ability of each peptide to react with the biological sample with which the test is carried out.
The reactivity of the peptides of the invention, peptides No. 10 (14B), No. 11 (18B), No. 12 (19B), No. 14 (21B), No. 15 (22B), No. 16 (23B) all in cyclized form, was compared with that of three homologous synthetic peptides having, as sequence, a portion of the natural sequence of the envelope (env) of a group O HIV-1 retrovirus. These peptides are two peptides derived from the VAU isolate—the peptide VAU 22 AA and the peptide VAU 35 AA—and the peptide MVP 5180 (designated “MVP 5180” in Table V). The peptides VAU 22 AA and VAU 35 AA (whose structure is indicated in Example 2) and the peptide MVP 5180 comprise an immunodominant epitope of gp41.
All these peptides were used in cyclized form. The sequence of the MVP 5180 peptide is the following:
For each peptide tested, the samples were arranged into four classes (a, b, c and d) corresponding to various levels of relative absorbance read at the wavelengths A492-A620: • for a: OD<0.100, • for b: 0.100<OD<0.500, • for c: 0.500<OD<1.000, • for d: OD>1.000, thus making it possible to evaluate the degree of immunoreactivity of the peptides.

| Sequence | Number of samples (CLASS A (a: OD<0.100)) | Number of samples (CLASS B (b: 0.100<OD<0.500)) | Number of samples (CLASS C (c: 0.500<OD<1.000)) | Number of samples (CLASS D (d: OD>1.000)) | ABSORBANCE (OD) (serum 258 OUDI at 1/100) | ABSORBANCE (OD) (serum 625 at 1/50) | ABSORBANCE (OD) (serum 3600 at 1/100) | ABSORBANCE (OD) (serum 3613 at ¼00) | ABSORBANCE (OD) (serum 3653 at 1/10) | ABSORBANCE (OD) (serum 4280 at 1/50) | ABSORBANCE (OD) (serum 6111 at 1/100) | ABSORBANCE (OD) (serum DJOU at 1/100) | ABSORBANCE (OD) (serum DO15 at 1/100) | ABSORBANCE (OD) (serum MBASSI at 1/100) | ABSORBANCE (OD) (serum Maryland at ¼00) | ABSORBANCE (OD) (serum NGO at 1/50) | ABSORBANCE (OD) (serum NJEM at 1/100) | ABSORBANCE (OD) (serum WANG at 1/50) | immunoreactivity compared with the reference peptides (in words) |
| --- | --- | --- | --- | --- | --- | --- | --- | --- | --- | --- | --- | --- | --- | --- | --- | --- | --- | --- | --- |
| ALETLLQNQQLLNSWGCRGRLVCYTSVRWNET [PEPTIDE No. 11 (18B)] | 0 | 9 | 4 | 1 | 0.373 | 0.338 | 0.360 | 0.837 | 0.337 | 0.686 | 0.348 | 0.482 | 0.859 | 1.150 | 0.370 | 0.335 | 0.811 | 0.234 |  |
| ALETLLQNQQLLNIWGCRGRLVCYTSVRWNET [PEPTIDE No. 12 (19B)] | 0 | 11 | 2 | 1 | 0.226 | 0.264 | 0.249 | 0.773 | 0.247 | 0.201 | 0.202 | 0.419 | 1.286 | 0.747 | 0.285 | 0.193 | 0.391 | 0.124 |  |
| LNQQRLLNSWGCKGRLVCYTSV [PEPTIDE No. 14 (21B)] | 1 | 3 | 4 | 6 | 0.764 | 2.045 | 0.716 | 1.508 | 0.072 | 0.286 | 0.850 | 1.998 | 3.357 | 2.134 | 0.734 | 0.157 | 0.277 | 2.397 | most immunoreactive |
| RLNSWGCKGRLVCYTSV [PEPTIDE No. 16 (23B)] | 2 | 2 | 1 | 9 | 1.692 | 1.791 | 0.933 | 1.679 | 0.406 | 0.033 | 1.009 | 2.166 | 3.038 | 2.683 | 1.229 | 0.110 | 0.025 | 1.290 | most immunoreactive |
| RALETLLNQQRLLNSWGCKGRLVCYTSV [PEPTIDE No. 15 (22B)] | 0 | 2 | 4 | 8 | 1.184 | 2.122 | 0.801 | 1.627 | 0.380 | 0.689 | 1.207 | 2.088 | 3.693 | 2.010 | 0.844 | 0.315 | 0.939 | 2.680 | most immunoreactive |
| RLQALETLIQNQQRLNLWGCKGKLICYTSVKWNTS (cysteine pairing not given here) [MVP 5180, reference compound] | 1 | 12 | 1 | 0 | 0.116 | 0.202 | 0.206 | 0.478 | 0.401 | 0.382 | 0.226 | 0.203 | 0.673 | 0.248 | 0.241 | 0.184 | 0.146 | 0.075 |  |
